Source: ChEMBL document CHEMBL1201862, “PubChem BioAssay data set” (2004)
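Test compounds were applied to cells in 96-well plates for 48 hours at 5 doses. GI50 is the concentration that inhibits growth by half.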 Activity calls are given as the source filed them. Rule as the data show it: active = GI50 up to about 1.1 µM and inactive = higher.

Experiments:
Assay in all cases: NCI-60 cell line screen, 48 h
SK-MEL-2 = tested on: SK-MEL-2
MDA-MB-231 = tested on: MDA-MB-231
HCC 2998 = tested on: HCC 2998
RPMI-8226 = tested on: RPMI-8226
HCT-116 = tested on: HCT-116
NCI-H460 = tested on: NCI-H460
SF-268 = tested on: SF-268
CCRF-CEM = tested on: CCRF-CEM
A549 = tested on: A549
SK-OV-3 = tested on: SK-OV-3
NCI/ADR-RES = tested on: NCI/ADR-RES
SK-MEL-5 = tested on: SK-MEL-5
COLO 205 = tested on: COLO 205
MCF7 = tested on: MCF7
PC-3 = tested on: PC-3
NCI-H23 = tested on: NCI-H23
Hs-578T = tested on: Hs-578T
CAKI-1 = tested on: CAKI-1
A498 = tested on: A498
DU-145 = tested on: DU-145
OVCAR-4 = tested on: OVCAR-4
RXF 393 = tested on: RXF 393
MDA-MB-435 = tested on: MDA-MB-435
OVCAR-3 = tested on: OVCAR-3
HCT-15 = tested on: HCT-15
EKVX = tested on: EKVX
SNB-75 = tested on: SNB-75
NCI-H226 = tested on: NCI-H226
T47D = tested on: T47D
MOLT-4 = tested on: MOLT-4
SW-620 = tested on: SW-620
SF-295 = tested on: SF-295
HOP-62 = tested on: HOP-62
UACC-257 = tested on: UACC-257
BT-549 = tested on: BT-549
ACHN = tested on: ACHN
SNB-19 = tested on: SNB-19
SK-MEL-28 = tested on: SK-MEL-28
U-251 = tested on: U-251
M14 = tested on: M14
NCI-H522 = tested on: NCI-H522
TK-10 = tested on: TK-10
SN12C = tested on: SN12C
KM12 = tested on: KM12
IGROV-1 = tested on: IGROV-1
OVCAR-5 = tested on: OVCAR-5
K562 = tested on: K562
OVCAR-8 = tested on: OVCAR-8
786-0 = tested on: 786-0
HOP-92 = tested on: HOP-92
HT-29 = tested on: HT-29
UO-31 = tested on: UO-31
HL-60 = tested on: HL-60
SF-539 = tested on: SF-539
UACC-62 = tested on: UACC-62
Malme-3M = tested on: Malme-3M
MDA-N = tested on: MDA-N
LOX IMVI = tested on: LOX IMVI

ClCCCc1ccccc1C1=NCCc2ccccc21
GI50 (SK-MEL-2): > 100 µM (inactive) | GI50 (MDA-MB-231): > 100 µM (inactive) | GI50 (HCC 2998): 40.3 µM (inactive) | GI50 (RPMI-8226): 3.21 µM (inactive) | GI50 (HCT-116): 42.4 µM (inactive) | GI50 (NCI-H460): 43.9 µM (inactive) | GI50 (SF-268): 49.7 µM (inactive) | GI50 (CCRF-CEM): > 100 µM (inactive) | GI50 (A549): 54.2 µM (inactive) | GI50 (SK-OV-3): > 100 µM (inactive) | GI50 (NCI/ADR-RES): > 100 µM (inactive) | GI50 (SK-MEL-5): 9.73 µM (inactive) | GI50 (COLO 205): 22 µM (inactive) | GI50 (MCF7): 66.2 µM (inactive) | GI50 (PC-3): 36.5 µM (inactive) | GI50 (NCI-H23): 15.8 µM (inactive) | GI50 (Hs-578T): 31.7 µM (inactive) | GI50 (CAKI-1): > 100 µM (inactive) | GI50 (A498): > 100 µM (inactive) | GI50 (DU-145): > 100 µM (inactive) | GI50 (OVCAR-4): 51.5 µM (inactive) | GI50 (RXF 393): > 100 µM (inactive) | GI50 (MDA-MB-435): 37.5 µM (inactive) | GI50 (OVCAR-3): > 100 µM (inactive) | GI50 (HCT-15): > 100 µM | GI50 (EKVX): 80.9 µM (inactive) | GI50 (SNB-75): 17.5 µM (inactive) | GI50 (NCI-H226): 55.1 µM (inactive) | GI50 (T47D): 31.3 µM (inactive) | GI50 (MOLT-4): 82.4 µM (inactive) | GI50 (SW-620): > 100 µM (inactive) | GI50 (SF-295): > 100 µM (inactive) | GI50 (HOP-62): > 100 µM (inactive) | GI50 (UACC-257): 43.1 µM (inactive) | GI50 (BT-549): 21 µM (inactive) | GI50 (ACHN): > 100 µM (inactive) | GI50 (SNB-19): 36.8 µM (inactive) | GI50 (SK-MEL-28): > 100 µM (inactive) | GI50 (U-251): 25.8 µM (inactive) | GI50 (M14): > 100 µM (inactive) | GI50 (NCI-H522): 25.5 µM (inactive) | GI50 (TK-10): > 100 µM (inactive) | GI50 (SN12C): 48.4 µM (inactive) | GI50 (KM12): 40.9 µM (inactive) | GI50 (IGROV-1): 98.9 µM (inactive) | GI50 (OVCAR-5): > 100 µM (inactive) | GI50 (K562): 13.7 µM (inactive) | GI50 (OVCAR-8): 24.9 µM (inactive) | GI50 (786-0): > 100 µM (inactive) | GI50 (HOP-92): 81.1 µM (inactive) | GI50 (HT-29): 28.5 µM (inactive) | GI50 (UO-31): > 100 µM (inactive) | GI50 (HL-60): 23.5 µM (inactive) | GI50 (SF-539): > 100 µM (inactive) | GI50 (UACC-62): 56.2 µM (inactive)

Cc1nc2ccc(F)cc2c2c1CCN2c1ccc(Cl)cc1
GI50 (SK-MEL-2): 18.6 µM (inactive) | GI50 (MDA-MB-231): 4.04 µM (inactive) | GI50 (HCC 2998): 13.7 µM (inactive) | GI50 (HCT-116): 4.52 µM (inactive) | GI50 (NCI-H460): 7.38 µM (inactive) | GI50 (SF-268): 30.8 µM (inactive) | GI50 (CCRF-CEM): 5.82 µM (inactive) | GI50 (A549): 17.2 µM (inactive) | GI50 (SK-OV-3): 29 µM (inactive) | GI50 (NCI/ADR-RES): 4.88 µM (inactive) | GI50 (SK-MEL-5): 3.56 µM (inactive) | GI50 (COLO 205): 6.71 µM (inactive) | GI50 (MCF7): 11.6 µM (inactive) | GI50 (PC-3): 3.85 µM (inactive) | GI50 (NCI-H23): 5.15 µM (inactive) | GI50 (Hs-578T): 27.6 µM (inactive) | GI50 (CAKI-1): 13.9 µM (inactive) | GI50 (A498): 20.9 µM (inactive) | GI50 (DU-145): 29.4 µM (inactive) | GI50 (OVCAR-4): 13.4 µM (inactive) | GI50 (RXF 393): 18 µM (inactive) | GI50 (MDA-MB-435): 6.64 µM (inactive) | GI50 (OVCAR-3): 7.96 µM (inactive) | GI50 (HCT-15): 13.1 µM | GI50 (SNB-75): 39.6 µM (inactive) | GI50 (NCI-H226): 9.38 µM (inactive) | GI50 (SW-620): 11.3 µM (inactive) | GI50 (Malme-3M): 10.7 µM (inactive) | GI50 (SF-295): 4.33 µM (inactive) | GI50 (HOP-62): 13.1 µM (inactive) | GI50 (UACC-257): 3.51 µM (inactive) | GI50 (BT-549): 19.5 µM (inactive) | GI50 (MDA-N): 4.25 µM (inactive) | GI50 (ACHN): 13.7 µM (inactive) | GI50 (SNB-19): 36.6 µM (inactive) | GI50 (SK-MEL-28): 12.2 µM (inactive) | GI50 (U-251): 9.1 µM (inactive) | GI50 (M14): 8.85 µM (inactive) | GI50 (NCI-H522): 6.78 µM (inactive) | GI50 (TK-10): 9.4 µM (inactive) | GI50 (SN12C): 11.8 µM (inactive) | GI50 (IGROV-1): 7.73 µM (inactive) | GI50 (OVCAR-5): 33.9 µM (inactive) | GI50 (K562): 2.26 µM (inactive) | GI50 (LOX IMVI): 12.5 µM (inactive) | GI50 (OVCAR-8): 9.71 µM (inactive) | GI50 (786-0): 7.66 µM (inactive) | GI50 (HOP-92): 2.69 µM (inactive) | GI50 (HT-29): 3.61 µM (inactive) | GI50 (UO-31): 5.45 µM (inactive) | GI50 (HL-60): 2.01 µM (inactive) | GI50 (SF-539): 10.5 µM (inactive) | GI50 (UACC-62): 10.9 µM (inactive)
